Data taken from patent US11446253B2, “Ionic liquids for internal delivery” (priority 2017, dated 2022).
Several values for one entry are separate records, joined by “and”; a condition that tells them apart may be missing. Equal entries are not always repeated.

How the values were obtained:
Caco-2 monolayers = test: FITC-insulin transport across Caco-2 monolayers; type: cell-based, human; settings: Caco-2 monolayers, end of study at 5 h, 10 mM CAGE or saline
Experimental: TEER was measured on a regular basis and when it reached above 200 ohms·cm^2, indicating sufficient tight junction integrity between cells, transport study was performed.
(§1) After the end of study at 5 h, the FITC-insulin concentration in the aliquots were measured using a plate reader (Tecan, Infinite M1000, Mannedorf, Switzerland) at 495/520 nm excitation/emission wavelengths and plotted as % FITC-insulin transport vs time. Furthermore, TEER was measured at every time point when aliquots were withdrawn from the transwells and plotted as % change from initial value vs time.
TEER was measured on a regular basis and when it reached above 200 ohms. cm2, indicating sufficient tight junction integrity between cells, transport study was performed.
as §1, with “[…]” for “% change from initial value”

[1] = stored at 4° C.; cited from earlier work
[2] = system: non-diabetic male Wistar rats; test: Blood glucose lowering after oral administration in enterically coated capsules; type: in vivo, rat
Experimental: (§2) For the oral efficacy study, adult non-diabetic male Wistar rats were fasted overnight but given free access to water. On the next day, the capsules were administered to the rats using an oral gavage followed by subcutaneous administration of 5 mg/kg metoclopramide HCl to promote gastric emptying. Blood glucose was thereafter measured using a commercial glucose meter and subsequently every hour till 12 h. Rats were fasted throughout the period of study. […] In addition, the efficacy of subcutaneously injected 2 U/kg insulin-saline was also evaluated. […] The results were plotted as percent change in blood glucose level vs time.
as §2, with “To determine the efficacy of insulin-CAGE administered through the oral route, elongated size 9 capsules were used. […] Following this, the capsules were enterically coated three times with 12.5% w/v Eudragit® L-100 dissolved in isopropanol. For” for “For”, “Next” for “On the next”, “was” for “was also”, “time. […] After 12 h of study, rats were euthanized, and small intestinal sections were collected for tissue histology.” for “time.”

bovine trypsin = target: T1, bovine trypsin (Bos taurus, UniProt P00760); test: Trypsin-mediated degradation of insulin (LC-MS); type: biochemical; settings: incubated with trypsin, 37° C., 24 h
T1 construct: purchased MP Biomedicals (Santa Ana, Calif., USA)
T1 sequence (P00760 24-246): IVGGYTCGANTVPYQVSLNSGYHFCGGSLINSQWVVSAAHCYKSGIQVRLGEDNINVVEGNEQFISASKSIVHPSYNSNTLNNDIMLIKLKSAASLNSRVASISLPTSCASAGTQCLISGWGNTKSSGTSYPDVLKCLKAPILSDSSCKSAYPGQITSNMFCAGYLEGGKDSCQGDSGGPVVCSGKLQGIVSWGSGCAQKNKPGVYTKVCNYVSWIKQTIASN
Experimental: Immediately after vortex (time=0 h; t0) and at predetermined time intervals, 0.1 mL of the insulin-trypsin mixture was aliquoted, and the enzyme activity was inhibited by the addition of 0.1 mL of ice-cold 0.1% trifluoroacetic acid/acetonitrile solution (69:31, v/v). The samples were analyzed by liquid chromatography-mass spectrometry (LC-MS) to determine the amount of intact insulin in the solution at different times. An Agilent 1290/6140 Ultra High Performance Liquid Chromatography/Mass Spectrometer consisting of a 1290 Infinity LC™ binary pump, thermostat column compartment, 1290 Infinity autosampler, an Agilent 1290 diode array detector and an Agilent 6140 quadrupole MSD system was used for the analyses. For an analysis, 3 μL of the samples were injected into an Agilent 300SB-C18 2.1×75 mm, 5 μm, maintained at 25° C. and eluted with a mobile phase consisting of a gradient mixture of deionized water with 0.1% formic acid (FA) (A) and acetonitrile (B) with 0.1% FA. A gradient of 95-5% (0 min), 0-100% (10 min), 0-100% (15 min), 95-5% (15.1 min), 95-5% (18 min) A:B was used for each run. […] All experiments were conducted in triplicate and are reported are mean±standard deviation.

[3] = system: non-diabetic male Wistar rats; test: In vivo bioactivity of insulin isolated from CAGE after storage; design: species or system rat; settings: fresh, 1 U/kg subcutaneous, listed as Freshly prepared insulin solution
Excerpt: Prior to insulin injections, rats were fasted overnight but given free access to water and fasting continued throughout the study to eliminate variability in blood glucose due to food consumption. The results were plotted as % change in blood glucose compared to initial level vs time.

Caco-2 cells = test: Tight junction integrity (TEER) in Caco-2 cells; type: cell-based, human; settings: FITC-insulin with 10 mM CAGE or saline, 5 h
Experimental: […] Furthermore, TEER was measured at every time point when aliquots were withdrawn from the transwells and plotted as % change from initial value vs time.
TEER values were recorded for each insert. […] TEER was plotted as % change from initial value vs time.

Non-diabetic Wistar rats = test: Consecutive oral dosing of neat CAGE capsule and insulin capsule; type: in vivo, rat; settings: 10 U/kg insulin oral, 10 h
Experimental: Non-diabetic Wistar rats were fasted overnight for 8 h but given access to water ad libitum. […] The blood glucose for time 0 was evaluated at this point. […] Fasting was continued with free access to water till the end of study at 12 h and blood glucose was evaluated at various time points. The results were plotted as % change in blood glucose compared to initial level vs time.

[4] = Serum insulin pharmacokinetics (human insulin ELISA); settings: for AUCtotal: insulin-CAGE 5 U/kg intrajejunal, insulin 2 U/kg subcutaneous
Experimental: Standard protocol was followed for separation of serum from whole blood. Briefly, the blood samples were left undisturbed at RT for 15-30 minutes to allow clot formation, followed by centrifugation at 2,000 g for 10 minutes.
Fasting prior to anti-diabetic efficacy studies is routinely done (29, 62, 63). It helps avoid fluctuations in the blood glucose levels as a result of eating, which can vary between animals based on the amount and time of food intake. All animal experiments were performed in accordance with the University of California Santa Barbara animal care committee guidelines and to the Guide for the Care and Use of Animals of the Institute of Laboratory Animal Resources, National Research Council. […] The time zero blood glucose was taken after the intestine was exposed i.e. immediately prior to the injections. […] Loss in body temperature in the animals during anesthesia was prevented by placing the animals on temperature controlled warming pads prior to surgery followed by additional towel cover after surgery. The animals remained anesthetized throughout the study and were euthanized after 5 h. […] In addition, the saline group was considered as fasting control and graphs were plotted after subtracting blood glucose levels of the saline group. […] Standard protocol was followed for separation of serum from whole blood. Briefly, blood samples were left undisturbed at RT for 15-30 minutes to clot, followed by centrifugation at 2,000 g for 10 minutes. […] Pharmacodynamic bioavailability was calculated using AUC obtained from efficacy plots.

[5] = system: non-diabetic male Wistar rats; test: Blood glucose lowering after intrajejunal administration; type: in vivo, rat
Experimental: Before the start of the study, the rats were anesthetized, abdominal hair clipped and the area prepped for surgery using 70% ethanol and betadine. An incision was made in the abdomen to expose the intestine. […] Each formulation was tested in 6 rats with the exception of saline which was tested in only 3 rats. Thereafter, intestinal section was placed back into the abdomen and the muscle and skin sutured. Blood glucose was determined using a commercial glucose meter in the beginning and at every 0.5 h till the end of study at 5 h. The animals remained anesthetized throughout the study, at the end of which they were euthanized and the intestinal section around the injection site was removed for further histological examination to determine toxicity, if any. […] The results were plotted as % change in blood glucose levels with respect to initial reading at t=0 vs time.
Before the start of the study, the rats were anesthetized, abdominal hair clipped, and the surgery area was prepped using 70% ethanol and betadine. An incision was made in the abdomen to expose the intestine. […] The time zero blood glucose was taken after the intestine was exposed i.e. immediately prior to the injections. Each formulation was tested in 6 rats with the exception of saline which was tested in only 3 rats. Thereafter, intestinal section was placed back into the abdomen and the muscle and skin sutured. Blood glucose was determined using a commercial glucose meter at the beginning and at every 0.5 h till the end of study at 5 h. Loss in body temperature in the animals during anesthesia was prevented by placing the animals on temperature controlled warming pads prior to surgery followed by additional towel cover after surgery. The animals remained anesthetized throughout the study and were euthanized after 5 h. At the end of study at 5 h, the intestinal section around the injection site was removed for further histological examination to determine toxicity, if any. […] The results were plotted as % change in blood glucose levels with respect to initial reading vs time. In addition, the saline group was considered as fasting control and graphs were plotted after subtracting blood glucose levels of the saline group.

Substance: insulin: human insulin (Sigma-Aldrich) in saline or buffer, comparator
- FITC-insulin transport (Caco-2 monolayers): 10%
- stability at 4° C. [1]: 2 to 7 days
- blood glucose, % of initial level ([2]; 2 U/kg subcutaneous, 1 h): 51.43±5.25% and 51±5%
- drop in blood glucose ([2]; 2 U/kg subcutaneous, 1 h): 50% and 49%
- decrease in blood glucose of formulation controls ([2]; oral controls, 12 h): about 25%
- intact insulin remaining (bovine trypsin): 5±0.4%
- blood glucose, % of initial level ([3]; 1 h): 50.73±2.47% and 51±2%
- drop in blood glucose ([3]; 1 h): 50% and 49%
- blood glucose, % of initial level ([3]; 2 h): 49.59±4.4% and 50±4%
- blood glucose, % of original level ([3]; 5 h): 92.05±4.8% and 92±5%
- TEER, % of initial value (Caco-2 cells): 98.5±2.64%
- blood glucose drop (Non-diabetic Wistar rats): around 34%
- blood glucose, % of initial levels (Non-diabetic Wistar rats): 66.9±7.1%
- serum insulin concentration ([4]; 3 U/kg intrajejunal): hardly increased
- serum insulin level with time ([4]; 5 U/kg intrajejunal): did not show any increase
- AUCtotal ([4]; Table 1): 237.6 μIU · h/ml
- AUCtotal ([4]; Table 2): 237.6 μIU · h/mL
- blood glucose, % of initial level ([5]; 2 U/kg subcutaneous, 1 h): 48.76±7.55% and 49±8%
- maximum drop in blood glucose ([5]; 2 U/kg subcutaneous, 1 h): 51%
- blood glucose, % of initial level ([5]; 2 U/kg subcutaneous, 5 h): 101.61±6.69% and 101±7%
- decrease in blood glucose of control groups, % of initial level ([5]; intrajejunal controls (neat CAGE, 3 U/kg insulin-saline), 5 h): about 25%
